Data published in patent US4616028A, “Substituted 2,3,4,9-tetrahydro-1H-carbazole-1-acetic acid derivatives, compositions and use” (American Home Products Corporation, priority 1985, dated 1986).
Structures can show the parent of a compound that is named as a salt.

Key:
[1] = test system: inflamed paw; assay: Paw Pressure Test in the Rat (Freund's adjuvant inflamed paw, pain threshold); assay type: in vivo, rat (male Sprague Dawley); conditions: for ED50: po
Excerpt: A still further test used to determine the utility of the compounds of the present invention is designated: PAW PRESSURE TEST IN THE RAT
The objective of this test is to assess the potency of peripheral and central acting drugs in inhibiting the reaction of rats to painful stimulation applied to an inflamed paw.
Male Sprague Dawley rats (180-200 g) are used. The animals are fasted overnight prior to drug administration.
(§1) Drug Preparation and Administration:
Freund's Complete Adjuvant (FCA) is prepared by suspending 5 mg killed and dried mycobacterium butyricum (Difco) in 1 ml liquid paraffin. The test compounds are dissolved, or suspended with a few drops of Tween 80, in distilled water according to their solubility. They are administered by gastric gavage in a volume of 0.5 ml/100 g body weight to groups of 10 animals.
Ten rats are used per group. The method is essentially that described by Randall, et al., Arch. Int. Pharmacodyn. 111, 409 (1957) and the apparatus which is used to apply pressure to the paw (Analgesy-meter for the rat paw, Ugo Basile from Coulbourn Instruments) is a modification of that described by Gilfoil et al., J. Pharmacol, 142, 1 (1963). The instrument is basically a device which exerts a force that increases at a constant rate. The force is continuously monitored by a pointer moving along a linear scale and is measured in grams. The inflammatory reaction is induced in the left hind paw of rats by injecting 0.1 ml of Freund's adjuvant intradermally. The test compound or vehicle is administered 24 hours after the adjuvant. Prior to drug administration the rats are selected for their paw sensitivity. Rats responding to a pain threshold greater than 10 g applied to the inflamed paw are rejected. The pain threshold (vocalization) is determined 1 and 3 hours later in the inflamed paw and the normal paw of the treated and control groups. The higher of the 2 readings will be considered as representative of the drug effect on the pain threshold.
Presentation of results and Criteria for Activity:
Each animal which has a reading 1.5 times greater than the mean reading of the control-group will be considered as responsive to treatment. The number of animals showing an analgesic effect is then determined in each group.
The ED50 (dose which causes analgesia in 50% of the animals) using at least 3 doses is then determined, by the method described in Litchfield et al., J. Pharmacol. Exp. Ther., 96, 99 (1949).

[2] = test system: Adjuvant Edema; assay: Preventative Adjuvant Edema (Freund's complete adjuvant, hind paw volume); assay type: in vivo, rat (male Sprague Dawley); conditions: for ED50: ED50, rat (second results table); for Preventative Adjuvant Edema % Inhibition: p.o., rat
Method: This test is a primary screen for anti-inflammatory drugs.
Male Sprague Dawley rats (180-200 g) are used. The animals have free access water but food is withdrawn 18 hours before testing.
Drug Preparations and Administration:
Freund's complete adjuvant is prepared by suspending 5 mg killed and dried Mycobacterium butyricum (Difco) in 1 ml liquid paraffin. The test compounds are dissolved in distilled water or suspended in distilled water with a few drops of Tween 80 according to their solubility. For primary screening all drugs are administrated by gastric lavage at the arbitrary dosage of 100 mg/kg, p.o. in a volume of 0.5 ml/100 g body weight to groups of 10 animals.
The method is essentially that described by Wax et al., J. Pharmacol. Exp. Ther., 192, 166-171 (1975). Groups of rats are injected intradermally in the left hind paw with 0.1 ml of Freund's complete adjuvant. The test compound or vehicle is administrated before the adjuvant, 24 hours and 48 hours after the adjuvant (day 0, 1 and 2). The injected hind paw volume is measured before the injection of adjuvant and 24 hrs. after the last drug administration (day 3) by means of a plethysmometer (Buxco Electronics Inc.). The difference between then hind paw volume on day 0 and day 3 represents the edema volume. Phenylbutazone (50 mg/kg, p.o.) is included as a positive control.
The mean edema volume (expressed as ml±SEM) is calculated for each group and the percentage protection conferred by the drug is calculated:
where c is the mean edema volume for the untreated controls and t is the mean edema volume for the drug treated group.

[3] = test system: Phenylquinone Writhing; assay: Phenylquinone-induced writhing in mice; assay type: in vivo, mouse (male Swiss albino); conditions: for ED50: ED50, mice (second results table); for Phenylquinone Writhing in Mice % Inhibition: p.o.
Method: A further test used to determine the utility of the compounds of the present invention is designated: DRUG EFFECTS ON PHENYLQUINONE-INDUCED WRITHING IN MICE […]
The objective of this test is to determine the ability of test drugs to inhibit the nociceptive (pain) response of mice injected with a chemical irritant. This test is a primary screen for both peripheral and centrally acting analgesic drugs.
Male Swiss albino mice (15-25 g). The animals are fasted for 18 hours prior to use but have free access to water.
as §1
Drugs are dissolved or suspended according to their solubility in 0.5% methyl cellulose or 0.5% Tween 80. They are administered by gastric lavage in a volume of 5 ml/kg. For primary screening all drugs are administered at the arbitrary dosage of 200 mg/kg, p.o. to a group of 10 mice.
A modification of the method of Siegmund at el., Proc. Soc. Exp. Biol. Med., 95, 729-731 (1957) is used. Groups of 5 mice are dosed with the test compound or vehicle control. Sixty minutes later the animals are injected i.p. with 0.3 ml/20 g body weight of a 0.02% solution of phenylquinone (PBQ; 2-phenyl-1,4-benzoquinone) and placed in individual observation boxes. The numer of writhing or abdominal squirming movements made by each mouse during the following 15 min. period is counted. The experiment is repeated with another group of 5 mice and the mean number of writhes per mouse for a group of 10 mice is calculated.
Drug treated and vehicle-treated control groups are compared and the percentage protection conferred by the drug is calculated:
Percentage protection=(c-t)100/c […]
where c=mean number of writhes in the control group where t=mean number of writhes in the test drug group

[4] = po, 72 h, rat (second results table), read-out: Preventative Adjuvant Edema percent inhibition
[5] = ED50, rat (second results table)
[6] = dose which causes analgesia in 50% of the animals, rat

| SMILES | inhibition in vivo at 25 mg/kg [2, 4] [%] | ED50 [1, 5] [mg/kg] | ED50 ([2]; po) [mg/kg] | ED50 ([3]; Mus musculus, po) [mg/kg] | further results |
| --- | --- | --- | --- | --- | --- |
| C=CC[C@@H]1CC[C@](CC)(CC(=O)O)c2[nH]c3c(CC)cccc3c21 [Example 44, (1R-cis)-1,8-Diethyl-2,3,4,9-tetrahydro-4-(2-propenyl)-1H-carbazole-1-acetic Acid Benzenemethanamine Salt (1:1)] | 0 |  |  |  | Paw Pressure Test in the Rat percent inhibition ([1]; dose 1 mg/kg, rat): 30%; Paw Pressure Test in the Rat percent inhibition ([1]; dose 5 mg/kg, rat): 40%; inhibition in vivo at 25 mg/kg ([3]; Mus musculus, po, dose 25 mg/kg, mice (second results table), read-out: Phenylquinone Writhing in Mice percent inhibition): 5% |
| C=CC[C@@H]1CC[C@](CC)(CC(=O)O)c2[nH]c3c(C)c(F)ccc3c21 (relative stereo) [Example 29] |  | 0.1 | 6.4 | 12.3 |  |
| C=CCC1CCC(C)(CC(=O)O)c2[nH]c3ccccc3c21 (stereo not drawn) [Example 12] |  | 1.9 | 6 | 18.7 |  |
| C=CC[C@@H]1CC[C@](CC)(CC(=O)O)c2[nH]c3c(Cl)c(Cl)ccc3c21 (relative stereo) [Example 32, cis-7,8-dichloro-1-ethyl-2,3,4,9-tetrahydro-4-(2-propenyl)-1H-carbazole-1-acetic acid] | 22 | 0.08 |  | 2 |  |
| C=CC[C@@H]1CC[C@](CC)(CC(=O)O)c2[nH]c3ccc(CCCC)cc3c21 (relative stereo) [Example 8] |  | 0.2 |  | 10.6 | inhibition in vivo at 5 mg/kg ([2]; po, 72 h, dose 5 mg/kg, rat (second results table), read-out: Preventative Adjuvant Edema percent inhibition): 56% |
| C=CC[C@@H]1CC[C@](CC)(CC(=O)O)c2[nH]c3ccc(CC)cc3c21 (relative stereo) [Example 6] | 21 | 0.01 |  | 103 | inhibition in vivo at 10 mg/kg ([2]; po, 72 h, dose 10 mg/kg, rat (second results table), read-out: Preventative Adjuvant Edema percent inhibition): 36% |
| C=CC[C@@H]1CC[C@](CC)(CC(=O)O)c2[nH]c3c(Cl)ccc(C)c3c21 (relative stereo) [Example 34] |  | 0.46 | 2.6 | 7.6 |  |
| C=CC[C@@H]1CC[C@](CC)(CC(=O)O)c2[nH]c3c(C)c(Cl)ccc3c21 (relative stereo) [Example 30, cis-7-chloro-1-ethyl-2,3,4,9-tetrahydro-8-methyl-4-(2-propenyl)-1H-carbazole-1-acetic acid] |  | 0.007 | 15 | 2.6 |  |
| C=CC[C@@H]1CC[C@](CC)(CC(=O)O)c2[nH]c3c(C)cccc3c21 (relative stereo) [Example 11, cis-1-ethyl-2,3,4,9-tetrahydro-8-methyl-4-(2-propenyl)-1H-carbazole-1-acetic acid] |  | 0.33 | 8.5 | 8.3 |  |
| C=CC[C@@H]1CC[C@](CC)(CC(=O)O)c2[nH]c3cc(Cl)ccc3c21 (relative stereo) [Example 20] |  | 0.38 | 5.4 | 5.1 |  |
| C=CC[C@@H]1CC[C@](CC)(CC(=O)O)c2[nH]c3c(C)ccc(C)c3c21 (relative stereo) [Example 31] | 42 | 0.3 |  | 2.3 |  |
| C=CC[C@@H]1CC[C@](CC)(CC(=O)O)c2[nH]c3ccccc3c21 (relative stereo) [Example 3, cis-1-Ethyl-2,3,4,9-tetrahydro-4-(2-propenyl)-1H-carbazole-1-acetic Acid] |  |  |  |  | ED50 [1, 6]: 0.01 mg/kg; Preventative Adjuvant Edema % Inhibition ([2]; 10 mg/kg): 50%; Phenylquinone Writhing in Mice % Inhibition ([3]; 20 mg/kg): 50% |
| C=CC[C@@H]1CC[C@](CC)(CC(=O)O)c2[nH]c3c(CC)cccc3c21 (relative stereo) [Example 1, cis-1,8-Diethyl-2,3,4,9-tetrahydro-4-(2-propenyl)-1H-carbazole-1-acetic Acid] |  |  |  |  | ED50 [1, 6]: 0.02 mg/kg; Preventative Adjuvant Edema % Inhibition ([2]; 10 mg/kg): 31%; Preventative Adjuvant Edema % Inhibition ([2]; 25 mg/kg): 44%; Preventative Adjuvant Edema % Inhibition ([2]; 50 mg/kg): 38%; Phenylquinone Writhing in Mice % Inhibition ([3]; 10.6 mg/kg): 31%; Phenylquinone Writhing in Mice % Inhibition ([3]; 25 mg/kg): 60-80%; Phenylquinone Writhing in Mice % Inhibition ([3]; 200 mg/kg): 94% |
